In brackets after ≈: the same amount, converted by molar mass. Where two headings read alike, the source gives them in different places.
How the values were obtained:
Assay type in all cases: cell-based, Pseudomonas aeruginosa
P. aeruginosa biofilms = test: Crystal violet staining of biofilm biomass (biofilm dispersal); conditions: for effect on biofilm biomass / dispersal (crystal violet): six hour exposure, 50 μM-400 μM, alone and in combination
Method: To study biofilm dispersal under static conditions, crystal violet staining was performed as previously described. Briefly, 24-hr old biofilms formed on MBEC™ plates, as described above, were stained with crystal violet after a 6-hr incubation with oxyclozanide and tobramycin.
One possible mechanism by which oxyclozanide enhances tobramycin activity is by inducing biofilm dispersal. To test this, the ability of oxyclozanide and tobramycin to disperse P. aeruginosa biofilms was examined using crystal violet staining of the biofilm biomass after six hour exposure to dilutions of oxyclozanide or tobramycin alone and in combination from 50 μM-400 μM (FIG. 6).

[1] = tested on: P. aeruginosa cells within biofilms; test: TO-PRO-3 staining for permeabilization of biofilm cells; conditions: melittin 100 μM, 2 hours
Method: 24-hr old biofilms were treated with melittin (100 μM), or tobramycin (400 μM), alone and in combination for 2 hours. […] Percent values indicate the average relative abundance of events within each gate normalized to the total number of events analyzed, excluding artifacts, aggregates and debris. The experiment was performed two separate times in duplicate. The results are percent averages plus the SEM. A one-way ANOVA followed by Bonferroni's multiple comparison post-hoc test was used to determine statistical significance between tobramycin versus melittin, tobramycin versus the combination, and melittin versus the combination(*, p<0.05).

[2] = tested on: P. aeruginosa planktonically grown cells; test: microbe, parasite or virus in culture
Method: To measure antimicrobial susceptibility of planktonic cells, MICs were determined using the broth microdilution technique, as described previously. Briefly, microdilutions were made in a 96-well plate in 1% MHB diluted in Dulbecco's Phosphate Buffered Saline with magnesium and calcium (DPBS, Sigma-Aldrich). Cells were combined with the serial dilutions in the 96-well plate at a concentration of ˜[…] CFU/mL in 10% MHB. The plates were then incubated for 24-hrs at 35° C. in a humidified chamber with agitation at 150 RPM. MIC breakpoints were chosen as the minimum concentration in which no turbidity greater than background was measured (absorbance at 595 nm), using a SpectraMax M5 microplate spectrophotometer system (Molecular Devices Sunnyvale, Calif.

24-hr old PAO1 biofilms = test: Biofilm susceptibility testing (MBEC assay, BacTiter-Glo); conditions: for time required to show antimicrobial activity: 24-hr biofilms, melittin 100 μM, tobramycin 400 μM; for number of viable cells within the biofilms (BacTiter-Glo), mean / percent of cells within 24-hr biofilms killed / fold reduction of viable cells versus untreated biofilm / percent of P. aeruginosa cells in the biofilm killed: 6-hrs; for fold reduction of viable cells versus untreated biofilm / percent of P. aeruginosa cells in the biofilm killed: oxyclozanide 100 μM, tobramycin 500 μM, gentamicin/streptomycin/tetracycline 100 μM, alone or in combination; for time killing curve result at 2 and 4 hrs, single agent: oxyclozanide or tobramycin alone; for EC50: Pseudomonas aeruginosa, read-out: half effective concentration 50 (EC50) of tobramycin; for onset of action: time killing curves, antibiotic alone or with oxyclozanide (100 μM)
Method: (§1) To measure antimicrobial susceptibility of biofilms, the MBEC™ assay was used (Innovotech) as previously described. This assay consists of a lid with 96 polystyrene pegs used to grow biofilms. Briefly, an overnight culture was washed and diluted to an OD600 of 0.001 and seeded into a MBEC™ plate. To grow biofilms, the plate was then incubated for 24-hrs at 35° C. in a humidified chamber with agitation at 150 RPM. After 24-hrs, the lid was then transferred to a 96-well plate filled with DPBS and washed for 5-mins to remove non-adherent cells. The lid was transferred to the 96-well treatment plate and incubated for the indicated time points at 35° C. without agitation. After the incubation, the MBEC™ lid was washed and transferred to a black 96-well ViewPlate (PerkinElmer) filled with BacTiter-Glo™ to enumerate cell viability and then luminescence was measured using a EnVison Multilabel Plate Reader (PerkenElmer, Waltham, Mass.). Percent killing was calculated as:
[formula] Dose response curves were performed in the same manner. Crystal Violet Staining
Time killing curves were performed by growing 24-hr old biofilms on MBEC™ plates as previously described. Briefly, 100 μM of oxyclozanide and 500 μM of tobramycin were used to test for synergy at high concentrations of tobramycin, mirroring what is done clinically. The peg-lid was briefly washed in DPBS to remove non-adherent cells and transferred to a treatment plate and incubated at 35° C. for 8-hrs. At 0, 2, 4, 6, and 8-hrs pegs were collected and BacTiter-Glo™ was used to determine cell viability.

[3] = tested on: P. aeruginosa clinical isolates from CF patients grown in biofilms; test: Biofilm susceptibility of CF clinical isolates (MBEC, BacTiter-Glo); conditions: 100 μM oxyclozanide; 6-hrs
Method: 24-hr old biofilms grown on MBEC plates were treated with oxyclozanide (100 μM), or tobramycin (500 μM), alone and in combination for 6-hrs. The number of viable cells within the biofilms were quantified by BacTiter-Glo™. The assay was performed three times in triplicate. The results represent means plus the SEM. A one-way ANOVA followed by Bonferroni's multiple comparison post-hoc test was used to determine statistical significance compared to tobramycin alone (*, p<0.05, NS, not significant).
as §1, with “The lid was transferred to the 96-well treatment plate and incubated for the indicated time points at 35° C. without agitation.” left out, “as: […]” for “as:”

[4] = Pseudomonas aeruginosa, read-out: Minimum Inhibitory Concentrations (MIC), +Melittin
[5] = Pseudomonas aeruginosa, read-out: Minimum Inhibitory Concentrations (MIC), Alone

Row | Compound | Minimum Inhibitory Concentrations (MIC), Alone [2] [µM] | time required to show antimicrobial activity (24-hr old PAO1 biofilms) [h] | effect on biofilm biomass / dispersal (crystal violet) (P. aeruginosa biofilms) | fold reduction of viable cells versus untreated biofilm (24-hr old PAO1 biofilms) | percent of P. aeruginosa cells in the biofilm killed (24-hr old PAO1 biofilms) [%] | time killing curve result at 2 and 4 hrs, single agent (24-hr old PAO1 biofilms) | MIC [2, 4] [µM] | MIC [2, 5] [µM] | onset of action (24-hr old PAO1 biofilms) [h] | further results
1 | CC[C@H](C)[C@H](NC(=O)CN)C(=O)NCC(=O)N[C@@H](C)C(=O)N[C@H](C(=O)N[C@@H](CC(C)C)C(=O)N[C@@H](CCCCN)C(=O)N[C@H](C(=O)N[C@@H](CC(C)C)C(=O)N[C@H](C(=O)N[C@H](C(=O)NCC(=O)N[C@@H](CC(C)C)C(=O)N1CCC[C@H]1C(=O)N[C@@H](C)C(=O)N[C@@H](CC(C)C)C(=O)N[C@H](C(=O)N[C@@H](CO)C(=O)N[C@@H](Cc1c[nH]c2ccccc12)C(=O)N[C@H](C(=O)N[C@@H](CCCCN)C(=O)N[C@@H](CCCNC(=N)N)C(=O)N[C@@H](CCCCN)C(=O)N[C@@H](CCCNC(=N)N)C(=O)N[C@@H](CCC(N)=O)C(=O)N[C@@H](CCC(N)=O)C(N)=O)[C@@H](C)CC)[C@@H](C)CC)[C@@H](C)O)[C@@H](C)O)C(C)C)C(C)C [melittin] | 62.5 to 200 | 2 |  |  |  |  |  |  |  | biofilm dispersal (crystal violet) (P. aeruginosa biofilms; 24-hr biofilms treated for 6-hrs): significant biofilm dispersal; permeabilization of cells (TO-PRO-3) [1]: causes permeabilization; number of viable cells within the biofilms (BacTiter-Glo), mean (24-hr old PAO1 biofilms; Tobramycin 0 μM, Melittin 12.5 μM): 5.18E5; number of viable cells within the biofilms (BacTiter-Glo), mean (24-hr old PAO1 biofilms; Tobramycin 0 μM, Melittin 25 μM): 4.22E5; number of viable cells within the biofilms (BacTiter-Glo), mean (24-hr old PAO1 biofilms; Tobramycin 0 μM, Melittin 50 μM): 2.87E5; number of viable cells within the biofilms (BacTiter-Glo), mean (24-hr old PAO1 biofilms; Tobramycin 0 μM, Melittin 100 μM): 2.51E4
2 | O=C(Nc1cc(Cl)cc(Cl)c1O)c1c(O)c(Cl)cc(Cl)c1Cl [oxyclozanide] |  |  | did not impact biofilm biomass | about 2 fold | 44 | no significant killing |  |  |  | sensitivity of six clinical isolates to treatment alone [3]: modest sensitivity; effect on the minimum inhibitory concentration of tobramycin, gentamicin, streptomycin, or tetracycline ([2]; planktonically grown cells): no effect; percent of cells within 24-hr biofilms killed (24-hr old PAO1 biofilms; 400 μM of each agent): ~80%; percent of cells within 24-hr biofilms killed (24-hr old PAO1 biofilms; oxyclozanide alone between 25 and 200 μM): 20-40%
3 | [H]/N=C(/N)N[C@H]1[C@H](O)[C@@H](O)[C@H](O[C@@H]2O[C@@H](C)[C@](O)(C=O)[C@H]2O[C@@H]2O[C@@H](CO)[C@H](O)[C@@H](O)[C@@H]2NC)[C@@H](N/C(N)=N\[H])[C@@H]1O [streptomycin] |  |  |  |  |  |  | 25 to 50 (≈ 14.5 to 29.1 µg/mL) | 25 to 50 (≈ 14.5 to 29.1 µg/mL) |  | delay in killing activity against 24-hr old biofilms (24-hr old PAO1 biofilms; antibiotic alone, 100 μM): did not show a delay
4 | NC[C@H]1O[C@H](O[C@H]2[C@H](O)[C@@H](O[C@H]3O[C@H](CO)[C@@H](O)[C@H](N)[C@H]3O)[C@H](N)C[C@@H]2N)[C@H](N)C[C@@H]1O [tobramycin] |  | 6 | significantly reduced biofilm biomass | about 2 fold | 56 | increase in cell number | 3.12 to 6.25 (≈ 1.46 to 2.92 µg/mL) | 3.12 to 6.25 (≈ 1.46 to 2.92 µg/mL) | 6 | EC50 (24-hr old PAO1 biofilms; PAO1, in combination with melittin): 16 µM; EC50 (24-hr old PAO1 biofilms; PAO1, tobramycin alone): 46 µM; number of viable cells within the biofilms (BacTiter-Glo), mean (24-hr old PAO1 biofilms; Tobramycin 50 μM, Melittin 0 μM): 1.82E5; number of viable cells within the biofilms (BacTiter-Glo), mean (24-hr old PAO1 biofilms; Tobramycin 100 μM, Melittin 0 μM): 1.91E5; number of viable cells within the biofilms (BacTiter-Glo), mean (24-hr old PAO1 biofilms; Tobramycin 200 μM, Melittin 0 μM): 2.27E5
5 | gentamicin | 6.25 to 12.5 |  |  |  |  |  |  |  | 4 | MIC ([2]; +Melittin, read-out: Minimum Inhibitory Concentrations (MIC), +Melittin): 12.5 µM
